Molecular target: T1, H3 receptors (Cavia porcellus, UniProt Q9JI35)
T1 construct: The source of the H3 receptors in this experiment was guinea pig brain; from tissue; host or cells: guinea pig brain membranes
Assay: H3-Receptor Binding Assay
Settings: guinea pig brain membranes; 3 nM [3H]R-α-methyl histamine or 3 nM [3H]Nα-methyl histamine; 30° C., 30 min
Procedure: Using the appropriate indolene starting materials in a similar procedure, the following compounds were prepared: [drawing 145] General Procedure for H3-Receptor Binding Assay
The source of the H3 receptors in this experiment was guinea pig brain. The animals weighed 400-600 g. The brain tissue was homogenized with a solution of 50 mM Tris, pH 7.5. The final concentration of tissue in the homogenization buffer was 10% w/v. The homogenates were centrifuged at 1,000×g for 10 min. in order to remove clumps of tissue and debris. The resulting supernatants were then centrifuged at 50,000×g for 20 min. in order to sediment the membranes, which were next washed three times in homogenization buffer (50,000×g for 20 min. each). The membranes were frozen and stored at −70° C. until needed.
All compounds to be tested were dissolved in DMSO and then diluted into the binding buffer (50 mM Tris, pH 7.5) such that the final concentration was 2 μg/ml with 0.1% DMSO. Membranes were then added (400 μg of protein) to the reaction tubes. The reaction was started by the addition of 3 nM [^3H]R-α-methyl histamine (8.8 Ci/mmol) or 3 nM [^3H]N^α-methyl histamine (80 Ci/mmol) and continued under incubation at 30° C. for 30 min. Bound ligand was separated from unbound ligand by filtration, and the amount of radioactive ligand bound to the membranes was quantitated by liquid scintillation spectrometry. […]

T1 sequence (Q9JI35 whole entry): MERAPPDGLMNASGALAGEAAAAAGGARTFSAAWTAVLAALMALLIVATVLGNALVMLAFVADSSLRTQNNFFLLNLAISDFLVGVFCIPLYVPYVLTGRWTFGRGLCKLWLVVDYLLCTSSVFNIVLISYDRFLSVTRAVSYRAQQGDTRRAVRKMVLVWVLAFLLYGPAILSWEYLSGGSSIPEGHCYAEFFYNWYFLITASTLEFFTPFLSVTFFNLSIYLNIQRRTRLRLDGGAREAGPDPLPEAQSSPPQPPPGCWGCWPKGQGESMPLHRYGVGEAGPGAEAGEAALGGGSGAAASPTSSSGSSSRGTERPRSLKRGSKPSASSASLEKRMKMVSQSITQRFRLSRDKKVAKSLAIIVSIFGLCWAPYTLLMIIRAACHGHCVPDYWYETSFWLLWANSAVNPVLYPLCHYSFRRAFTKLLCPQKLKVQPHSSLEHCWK

Nc1cc(CN2CCC(C(=O)N3CCC(c4c(-c5ccccn5)n(Cc5ccccn5)c5ccccc45)CC3)CC2)ccn1 [Example 5]
Ki: 1.5 nM

— patent US6951871B2, “Indole derivatives useful as histamine H3 antagonists” (Schering Corporation, priority 2002, dated 2005)
